Molecular target: T1, Or22a/Orco (Drosophila melanogaster, UniProt P81909)
T1 construct: his-tag; made in house; host or cells: baculovirus-infected Sf9 cells
T1 sequence (P81909 1-397): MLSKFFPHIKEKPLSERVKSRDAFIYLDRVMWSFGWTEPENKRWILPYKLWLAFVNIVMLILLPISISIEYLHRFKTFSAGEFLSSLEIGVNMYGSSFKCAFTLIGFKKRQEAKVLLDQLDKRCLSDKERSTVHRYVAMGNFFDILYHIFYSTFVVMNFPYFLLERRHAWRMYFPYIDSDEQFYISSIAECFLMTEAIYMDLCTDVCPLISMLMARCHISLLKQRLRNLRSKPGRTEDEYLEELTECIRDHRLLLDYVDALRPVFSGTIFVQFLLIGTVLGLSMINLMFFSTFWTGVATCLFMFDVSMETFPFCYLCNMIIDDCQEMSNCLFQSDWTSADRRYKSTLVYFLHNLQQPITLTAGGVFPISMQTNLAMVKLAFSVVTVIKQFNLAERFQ
T1 sequence (Q9VNB5 1-486 partner): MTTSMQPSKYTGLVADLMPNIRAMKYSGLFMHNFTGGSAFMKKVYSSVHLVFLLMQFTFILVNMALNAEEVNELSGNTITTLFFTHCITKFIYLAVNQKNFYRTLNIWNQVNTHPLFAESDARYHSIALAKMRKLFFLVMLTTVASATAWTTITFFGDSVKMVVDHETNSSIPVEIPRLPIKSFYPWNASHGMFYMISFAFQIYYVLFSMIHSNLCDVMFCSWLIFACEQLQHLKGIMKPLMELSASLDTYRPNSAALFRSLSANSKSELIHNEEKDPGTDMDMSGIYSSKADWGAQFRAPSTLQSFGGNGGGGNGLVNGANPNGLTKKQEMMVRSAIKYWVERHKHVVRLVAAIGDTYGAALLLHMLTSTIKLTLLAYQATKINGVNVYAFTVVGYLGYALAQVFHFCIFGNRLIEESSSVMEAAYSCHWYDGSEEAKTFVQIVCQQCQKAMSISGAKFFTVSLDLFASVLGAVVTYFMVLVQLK
Experiment: Droplet interface bilayer ion channel recording, Or22a/Orco
Type: biochemical
Settings: DIB, 10 μM ligand, at +/−100 mV, +/−50 mV and −25 mV
Experimental: Bilayers were formed between two droplets formed within a PMMA chamber filled with 1 mg/ml DPhPC in undecane and AR20 silicone oil (1:1 ratio). The first step in this process was to deposit a 50 nl droplet onto the stationary silver electrode positioned at the base of the well; this droplet consisted of an aqueous solution containing 300 mM NaCl, 10 mM HEPES (pH 7.4), containing the odorant receptor proteins in proteoliposomes (at a 1:20 dilution from the proteoliposome preparation), […] The second droplet was mounted onto a second silver electrode which was held in the oil and lipid mixture using a YOU-3 manipulator (Narishige, Japan). […] Once the droplets were in contact a bilayer formed spontaneously within 1 minute (as determined by visual assessment and an increase in the bilayer capacitance as measured with a capacitance voltage protocol using the Pico2 amplifier). Insertion of an active channel was determined by a change in current while clamping the voltage at 50 mV. […]
Currents were recorded with a Pico2 or an eONE-HS amplifier (Tecella, USA and Elements, Italy, respectively) with built-in digitizers, operating in gap-free acquisition mode at a sampling frequency of 20 kHz, and using a 0.8 or 1.5 kHz low pass filter. […]
Data were analysed using ANA (Dr Pusch, Genoa), EDR (Elements, Italy) and WinWCP (Dr Dempster, University of Strathclyde). […]

Q: How did the ion channel activity turn out when `CCCCCC(=O)OC` [methyl hexanoate] was run?
A: ion channel activity is observed

— patent US20210255184A1, “Biosensor Device and Methods” (The New Zealand Institute for Plant and Food Research …, priority 2018, published 2021)
